According to patent US20160271139A1, “METHOD FOR NON-TOXIC TREATMENT FOR DRUG WITHDRAWAL” (DEMERX, INC., priority 2013, published 2016):
Entries after “also recorded” stand apart in the source; their conditions may differ.

Legend:
[1] = tested on: healthy, drug-free male volunteers; assay: Cold pressor test in healthy volunteers; format: in vivo, human; conditions: single oral 3-60 mg, vs placebo p>0.9 and p=0.17
Description: Analgesic effect was assessed based on duration of hand immersion in ice water and on visual analog scale (VAS) pain scores upon hand removal from the water bath.
(§1) Safety and tolerability of noribogaine were tested in the group of volunteers from Example 1. […] Safety evaluations included clinical monitoring, recording of adverse events (AEs), safety laboratory tests, vital signs, ECO telemetry from −2 h to 6 h after dosing, and 12-lead electrocardiograms (ECGs) up to 216 hours post-dosing.

[2] = tested on: animal models of addiction; conditions: cited from earlier work
dogs = assay: Single dose acute oral toxicity/TK study in dogs; format: in vivo, dog
[3] = tested on: healthy, drug-free male volunteers; assay: Pupillary miosis by pupillometry in healthy volunteers; format: in vivo, human; conditions: single oral 3-60 mg, vs placebo p>0.9
Description: Pulse oximetry and capnography data were collected continuously using a GE Carescape B650 monitoring system from 2 hours prior to dosing and until six hours after dosing, and thereafter at 12, 24, 48 and 72 hours post-dosing. […] Pupillary miosis was assessed by pupillometry.
Dose-proportionality of AUC and Cmax was assessed using linear regression.

cynomolgus monkey = assay: Single dose toxicity in cynomolgus monkeys; format: in vivo; conditions: oral gavage
Description: The objective of the study was to determine the toxicity and toxicokinetic profile of noribogaine following oral (gavage) administration to the cynomolgus monkey. The test article was administered as follows in Table 1:
Parameters monitored on the study included: mortality, clinical signs and body weights. Blood samples were collected for TK evaluation. […] The single dose maximum tolerated dose (MTD) was determined to be greater than 160 mg/kg based on the parameters monitored during the study.

[4] = tested on: opioid-dependent participants; assay: Efficacy in opioid-dependent participants: time to resumption of opioid substitution treatment; format: in vivo, human
Description: (§2) The efficacy of noribogaine in humans was evaluated in opioid-dependent participants in a randomized, placebo-controlled, double-blind trial. In the first cohort, six patients were orally administered a single dose of 60 mg noribogaine, and three patients received placebo. In the second cohort, five patients were orally administered a single dose of 120 mg noribogaine, and three patients received placebo.

[5] = tested on: healthy, drug-free male volunteers; assay: Safety and tolerability in healthy volunteers; format: in vivo, human
Description: as §1

[6] = Urine noribogaine and noribogaine glucuronide elimination in healthy volunteers; format: in vivo; conditions: human urine
[7] = Plasma noribogaine pharmacokinetics in healthy volunteers (Example 7); format: in vivo, human; conditions: for AUC0-216 / AUC0-∞ / CL/F / Tmax / t1/2: mean
various animal species = assay: Pre-clinical toxicity studies in various animal species (background); format: in vivo
[8] = Plasma toxicokinetics in dogs, days 1 and 14; format: in vivo, dog; conditions: for T1/2 / Tmax: mean plasma
Description: Noribogaine HCl was administered to groups of 4 male and 4 female dogs by single oral gavage daily for 14 days at doses of 0, 0.5, 1.0 and 5.0 mg/kg/day. An additional group of 4 male and 4 female dogs received either the vehicle control or 5.0 mg/kg/day for 14 days and were held for an additional 28 days after cessation of dosing to assess recovery from any potential drug-induced changes. The study was conducted under GLP guidelines and included comprehensive examinations of clinical signs, body weight, clinical pathology parameters, ophthalmologic examinations. ECG recordings and analyses of plasma for bioanalytical measurement of drug levels at appropriate intervals during the study. At the termination of the dosing phase and at the termination of the recovery phase, all dogs were subjected to a complete post-mortem examination including gross examination of major organs and histologic examination of an extensive list of tissues. Additional sections of brain were obtained from cerebrum, cerebellus, brain stem and spinal cord and examined histologically to evaluate potential effects on brain histopathology. In addition, these sections were examined with immunohistochemical stains for GFAP for evidence of gliosis and Calbindin for a more comprehensive examination of cerebellar Purkinje cells.

[9] = tested on: opioid-dependent participants; assay: Safety (QT interval, adverse effects) in opioid-dependent participants; format: in vivo, human
Description: as §2

[10] = human plasma, single oral 3 mg (n = 6)
[11] = human plasma, single oral 10 mg (n = 6)
[12] = human plasma, single oral 30 mg (n = 6)
[13] = human plasma, single oral 60 mg (n = 6)
[14] = female dogs, Gr 2 - 0.5 mg/kg, D1
[15] = female dogs, Gr 2 - 0.5 mg/kg, D14
[16] = female dogs, Gr 3 - 1.0 mg/kg, D1
[17] = female dogs, Gr 3 - 1.0 mg/kg, D14
[18] = female dogs, Gr 4 - 5.0 mg/kg, D1
[19] = female dogs, Gr 4 - 5.0 mg/kg, D14
[20] = opioid-dependent participants, single oral 60 mg or 120 mg

In the case of `CC[C@H]1C[C@H]2C[C@H]3c4[nH]c5ccc(O)cc5c4CCN(C2)[C@@H]13` [noribogaine], the “Analgesic effect (duration of hand immersion, VAS pain scores)” value [1] is given as “no analgesic effect”, the “Efficacy in animal models of addiction” value ([2]; alcohol, cocaine and opiate dependence) is given as “effective in animal models of addiction to alcohol, cocaine and opiate dependence” and the Psychotomimetic effects ([2]; animal model) is given as “had no activity”. For the same compound, the Drug-seeking behavior ([2]; various animal addiction models) was “significantly reduced drug-seeking behavior”, the NOAEL (dogs) was 5 mg/kg and the “Findings at the NOAEL dose” value (dogs; 5 mg/kg) was “only transient reduction in food consumption in one dog”. For the same compound, the Clinical signs (dogs; 10 mg/kg, beginning 20 minutes after dosing, persisting until 3 h 40 m post-dose) was “Convulsions and other CNS-related clinical signs”, the Mortality (dogs; 5 (n=2) or 10 (n=2) mg/kg) was “no mortality occurred” and the “Pupillary constriction (dark-adapted pupil diameter)” value [3] was “no evidence of pupillary constriction”. For the same compound, the “Single dose maximum tolerated dose (MTD)” value (cynomolgus monkey) was “greater than 160 mg/kg”, the “Mortality or treatment related clinical signs” value (cynomolgus monkey; doses up to and including 160 mg/kg) was “No mortality or treatment related clinical signs” and the “Time to resumption of opioids longer than that reported for untreated patients in a similar study” value ([4]; first cohort, blinded: 60 mg noribogaine or placebo) was about 2 h. The “Average time to resumption of opioids” value ([4]; first cohort, blinded: single oral 60 mg noribogaine (6 patients) or placebo (3 patients)) was “approximately 8.7 hours”, the “Average time to resumption of OST” value ([4]; second cohort, 120 mg, five presumed noribogaine-treated patients (those with QT prolongation)) was “approximately 26.8 hours” and the “Average time to resumption of opioids” value ([4]; second cohort, blinded: single oral 120 mg noribogaine (5 patients) or placebo (3 patients)) was “approximately 23 hours”. The “Number of adverse events reported” value ([5]; healthy volunteers, 3 mg dose group) was “five adverse events were reported by two subjects”, the “Number of adverse events reported” value ([5]; healthy volunteers, 10 mg dose group, single subject) was “one adverse event” and the “Number of adverse events reported” value ([5]; healthy volunteers, 30 mg dose group, single subject) was “one adverse event”. The “Oximetry, capnography, respiratory rate” value ([5]; healthy volunteers, 3-60 mg) was “no changes in oximetry or capnography, or changes in respiratory rate”, the “Vital signs or safety laboratory tests” value ([5]; healthy volunteers, 3-60 mg) was “no changes in vital signs or safety laboratory tests of note” and the “QTcF values >500 msec” value ([5]; healthy volunteers, 3-60 mg, at any time) was “no QTcF values>500 msec at any time”. For the same compound, the “Adverse events, Mild” value ([5]; healthy volunteers, Dose 3 mg) was “Dizziness; also recorded: Epistaxis; also recorded: Headache; also recorded: Back pain”, the “Adverse events, Moderate” value ([5]; healthy volunteers, Dose 3 mg) was “Headache” and the “Adverse events, Mild” value ([5]; healthy volunteers, Dose 10 mg) was “Headache”. For the same compound, the “Adverse events, Mild” value ([5]; healthy volunteers, Dose 30 mg) was “Headache”, the “Single increase in QTcF” value ([5]; one subject dosed with 10 mg, at 24 hours post-dosing) was over 60 ms and the “Total urine noribogaine elimination (sum of noribogaine and noribogaine glucuronide)” value ([6]; 30 mg dose group) was 1.16 mg. The “Total urine noribogaine elimination as share of the dose administered” value ([6]; 30 mg dose group) was 3.9%, the “Total urine noribogaine elimination (sum of noribogaine and noribogaine glucuronide)” value ([6]; 60 mg dose group) was 0.82 mg and the “Total urine noribogaine elimination as share of the dose administered” value ([6]; 60 mg dose group) was 1.4%. The “Dose proportionality of Cmax and AUC” value ([7]; human plasma, 3-60 mg) was “increased linearly with dose”, the Mean half-life estimates ([7]; human plasma, across dose groups) was 28 to 50 h and the “Time of peak concentrations after oral dosing” value ([7]; human plasma, across dose groups 3-60 mg) was 2 to 3 h. The AUC0-216 [7, 10] was 72.2 ng·h/mL, the “AUC0-∞” value [7, 10] was 74.2 ng·h/mL and the CL/F [7, 10] was 41.4 L/h. For the same compound, the Tmax [7, 10] was 1.9 h, the t1/2 [7, 10] was 40.9 h and the AUC0-216 [7, 11] was 251.4 ng·h/mL. For the same compound, the “AUC0-∞” value [7, 11] was 254.5 ng·h/mL, the CL/F [7, 11] was 42.3 L/h and the Tmax [7, 11] was 2.9 h. The t1/2 [7, 11] was 49.2 h, the AUC0-216 [7, 12] was 677.6 ng·h/mL and the “AUC0-∞” value [7, 12] was 700.4 ng·h/mL. For the same compound, the CL/F [7, 12] was 46.9 L/h, the Tmax [7, 12] was 1.8 h and the t1/2 [7, 12] was 27.6 h. The AUC0-216 [7, 13] was 1935.4 ng·h/mL, the “AUC0-∞” value [7, 13] was 1962.2 ng·h/mL and the CL/F [7, 13] was 34.0 L/h. It also gave a Tmax [7, 13] of 2.4 h, a t1/2 [7, 13] of 29.1 h and a Volume of distribution ([7]; human, across dose groups) of 1417 to 3086 L. The “Toxicity at high doses” value (various animal species) was “can cause convulsions and other CNS-related clinical signs, respiratory arrest and death”, the T1/2 [8, 14] was 1.0 h and the Tmax [8, 14] was 0.5 h. The T1/2 [8, 15] was 1.1 h, the Tmax [8, 15] was 1.0 h and the T1/2 [8, 16] was 1.4 h. The Tmax [8, 16] was 0.8 h, the T1/2 [8, 17] was 1.6 h and the Tmax [8, 17] was 0.5 h. For the same compound, the T1/2 [8, 18] was 4.3 h, the Tmax [8, 18] was 0.6 h and the T1/2 [8, 19] was 5.7 h. For the same compound, the Tmax [8, 19] was 0.6 h, the “Plasma level at 24 h post-dosing” value ([8]; male and female dogs of Group 4 (5.0 mg/kg), Days 1 and 14) was “significant levels of noribogaine were still detected” and the Tmax ([8]; male dogs, Gr 2 - 0.5 mg/kg, D1) was 0.7 h. It also gave a Tmax ([8]; male dogs, Gr 2 - 0.5 mg/kg, D14) of 0.7 h, a Tmax ([8]; male dogs, Gr 3 - 1.0 mg/kg, D1) of 0.9 h and a Tmax ([8]; male dogs, Gr 3 - 1.0 mg/kg, D14) of 0.8 h. The Tmax ([8]; male dogs, Gr 4 - 5.0 mg/kg, D1) was 0.6 h, the Tmax ([8]; male dogs, Gr 4 - 5.0 mg/kg, D14) was 0.9 h and the “Mean prolongation of the QT interval” value ([9]; first cohort, 60 mg noribogaine or placebo) was “less than 10 ms”. The Adverse effects [9, 20] was “No adverse effects of noribogaine were observed in any of the participants”, the Hallucinatory effects [9, 20] was “no hallucinatory effects” and the “Mean prolongation of the QT interval” value ([9]; second cohort, 120 mg noribogaine or placebo) was “less than 40 ms”.
